“Also recorded” adds a separate entry of the source.
Tests used:
PI3K pathway = assay: Plucked hair assay, PI3K Signature Score; assay type: cell-based, human; details: CTO 8 hr and 24 hr; BEZ235 1 μM 24 hr
Procedure: (§1) Donor hairs were plucked from 5 male donor volunteers, immediately transferred to maintenance medium cultures and exposed to varying doses of CTO equivalent to […], 5 μM, and 10 μM carboxyamidotriazole (CAI). The cultures were either maintained for 8 hrs or 24 hrs. Controls were used, for example, Tarceva®. (EGFR inhibitor) at 1 μM and BEZ235 (PI3K inhibitor) at 1 μM for 24 hrs only. Once in culture hairs were collected at the specified periods for mRNA isolation or protein analysis to ensure quality control. Small amounts of RNA (about up to 500 ng) are extracted from the bulbs at the end of the anagen hairs. Representative cDNA was prepared from the RNA and gene expression levels determined by microarray analysis. Biotin labeling, fragmentation and hybridization to 048 Affymetrix U133 plus 2.0 array was done. […]

PI3K/mTOR pathway = assay: Plucked hair assay, PI3K/mTOR Signature Score; assay type: cell-based, human; details: CTO 8 hr and 24 hr; BEZ235 1 μM 24 hr
Procedure: as §1

[1] = test system: early growth response 1 gene product (EGR1); assay: Plucked hair assay, EGR1 expression; assay type: cell-based, human; details: for EGR1 regulation: BEZ235 and Tarceva 1 μM, 24 hr
Procedure: Donor hairs were plucked from 5 male donor volunteers, immediately transferred to maintenance medium cultures and exposed to varying doses of CTO equivalent to 2 M, 5 μM, and 10 μM carboxyamidotriazole (CAI). The cultures were either maintained for 8 hrs or 24 hrs. Controls were used, for example, Tarceva®. (EGFR inhibitor) at 1 μM and BEZ235 (PI3K inhibitor) at 1 μM for 24 hrs only. Once in culture hairs were collected at the specified periods for mRNA isolation or protein analysis to ensure quality control. Small amounts of RNA (about up to 500 ng) are extracted from the bulbs at the end of the anagen hairs. Representative cDNA was prepared from the RNA and gene expression levels determined by microarray analysis. Biotin labeling, fragmentation and hybridization to 048 Affymetrix U133 plus 2.0 array was done. Bioinformatic analysis was done to identify CTO induced gene expression changes.

RAS pathway = assay: Plucked hair assay, RAS pathway Signature Score; assay type: cell-based, human; details: different doses of CTO, 8 hr and 24 hr; most obvious at 8 hrs
Procedure: as §1

[2] = test system: Growth Factor Signature (GFS) pathway; assay: Plucked hair assay, Growth Factor Signature Score; assay type: cell-based, human; details: different doses of CTO, 8 hr and 24 hr; most obvious at 8 hrs
Procedure: as §1

MEK pathway = assay: Plucked hair assay, MEK Signature Score; assay type: cell-based, human; details: all CTO treatments at 8 hrs and 24 hrs
Procedure: as §1

HDAC pathway = assay: Plucked hair assay, HDAC Signature Score; assay type: cell-based, human; details: different doses of CTO, 8 hr and 24 hr
Procedure: as §1

NOTCH pathway = assay: Plucked hair assay, NOTCH Signature Score; assay type: cell-based, human; details: different doses of CTO, 8 hr and 24 hr
Procedure: as §1

WNT β-catenin pathway = assay: Plucked hair assay, WNT β-catenin Signature Score; assay type: cell-based, human; details: 24 hrs exposure to CTO
Procedure: as §1

HSP90 pathway = assay: Plucked hair assay, HSP90 Signature Score; assay type: cell-based, human; details: different doses of CTO, 8 hr and 24 hr; dose dependent
Procedure: as §1

EGFR pathway = assay: Plucked hair assay, EGFR Signature Score; assay type: cell-based, human; details: all doses of CTO and time points; Tarceva 1 μM 24 hr
Procedure: as §1

P53 pathway = assay: Plucked hair assay, P53 Signature Score; assay type: cell-based, human; details: all doses of CTO, 8 hr and 24 hr
Procedure: as §1

CAI IPA pathway = assay: Plucked hair assay, CAI IPA Signature Score; assay type: cell-based, human; details: different doses of CTO, 8 hr and 24 hr; except at 10 μM
Procedure: as §1, with “done. Bioinformatic analysis was done to identify CTO induced gene expression changes.” for “done.”

CAI Ex vivo pathway = assay: Plucked hair assay, CAI Ex vivo Signature Score; assay type: cell-based, human; details: different doses of CTO, 8 hr and 24 hr; tissue specific direction of change
Procedure: as §1, with “done. Bioinformatic analysis was done to identify CTO induced gene expression changes.” for “done.”

[3] = test system: non-voltage dependent calcium signaling genes; assay: Plucked hair assay, non-voltage dependent calcium signaling Signature Score; assay type: cell-based, human; details: across CTO treatment; literature determined regulation and ANOVA determined set
Procedure: as §1, with “done. Bioinformatic analysis was done to identify CTO induced gene expression changes.” for “done.”

[4] = test system: Canonical Calcium signaling; assay: Plucked hair assay, Canonical Calcium signaling Signature Score (KEGG and IPA); assay type: cell-based, human; details: KEGG Calcium Signaling Pathway and IPA predicted regulation
Procedure: Canonical calcium signaling was analyzed using the KEGG Calcium Signaling Pathway and IPA to predict regulation of canonical calcium signaling. […] Using ANOVA to filter for informative genes (FDR<0.05 & 1.5) it was noted that suppression of canonical calcium genes occurred across CTO treatment, however this only represented 7/68 canonical pathway genes.
as §1, with “done. Bioinformatic analysis was done to identify CTO induced gene expression changes.” for “done.”

[5] = test system: carcinoembryonic antigen-related cell adhesion molecule (CEACAM1); assay: Plucked hair assay, CEACAM1 expression; assay type: cell-based, human
Procedure: (§2) Donor hairs were plucked from 5 male donor volunteers, immediately transferred to maintenance medium cultures and exposed to varying doses of CTO equivalent to […], 5 μM, and 10 μM carboxyamidotriazole (CAI). The cultures were either maintained for 8 hrs or 24 hrs. Controls were used, for example, Tarceva®. (EGFR inhibitor) at 1 μM and BEZ235 (PI3K inhibitor) at 1 μM for 24 hrs only. Once in culture hairs were collected at the specified periods for mRNA isolation or protein analysis to ensure quality control. Small amounts of RNA (about up to 500 ng) are extracted from the bulbs at the end of the anagen hairs. Representative cDNA was prepared from the RNA and gene expression levels determined by microarray analysis. Biotin labeling, fragmentation and hybridization to 048 Affymetrix U133 plus 2.0 array was done. Bioinformatic analysis was done to identify CTO induced gene expression changes.

Dystonin = assay: Plucked hair assay, Dystonin expression; assay type: cell-based, human
Procedure: as §2

TGF-β signaling = assay: Plucked hair assay, TGF-β signaling; assay type: cell-based, human
Procedure: as §2

[6] = test system: cancer patients with different tumor types; assay type: in vivo; details: CTO given alone
Text: Thus enormous efforts are directed to the development of molecular pharmacodynamics biomarkers of signaling outputs of CTO to design combinatorial regimens against molecular targets in different types of cancers. Current methods for assessing pathway activation in tumors involve the measurement of the drug targets, known oncogenes or known tumor suppressors. However, one pathway can be activated at multiple points so it is not feasible to assess pathway activation by evaluating just known cancer associated genes.

[7] = test system: ex vivo cultured human anagen hairs; assay: Plucked hair biomarker platform: global transcriptional response by microarray (probe list, Table 1); details: for transcriptional response (differential probes): CTO equivalent to 2, 5, 10 μM CAI, 8 hr and 24 hr, BEZ235 and Tarceva 1 μM, 24 hr

Cn1c(=O)n(-c2ccc(C(C)(C)C#N)cc2)c2c3cc(-c4cnc5ccccc5c4)ccc3ncc21 [BEZ235, reference compound] was tested, and the PI3K signature (PI3K pathway) was “Strong suppression”, the PI3K/mTOR signature (PI3K/mTOR pathway) was “Strong suppression” and the EGR1 regulation [1] was “suppressed”.

For NC(=O)c1nnn(Cc2cc(Cl)c(C(=O)c3ccc(Cl)cc3)c(Cl)c2)c1N.O=C(O)c1cc(=O)[nH]c(=O)[nH]1 [CTO, carboxyamidotriazole orotate], the RAS signature (RAS pathway) was “modest down regulation”, the “Growth Factor signature (GFS)” value [2] was “modest down regulation” and the MEKi signature (MEK pathway) was “strongly suppressed; also recorded: strong inhibition”. The HDAC signature (HDAC pathway) was “strongly suppressed; also recorded: weak suppression”, the Notch signature (NOTCH pathway) was “no suppression; also recorded: no activity” and the “WNT β-catenin signature” value (WNT β-catenin pathway) was “modes suppression; also recorded: inhibitory at 24 hr”. The HSP90 signature (HSP90 pathway) was “strong suppression”, the EGFR signature (EGFR pathway) was “strongly suppressed; also recorded: very strong suppression; also recorded: stronger than that in Tarceva® at all doses of CTO and time points” and the P53 signature (P53 pathway) was “stabilized; also recorded: induction; also recorded: induced”. The “CAI signature (IPA, 29 genes)” value (CAI IPA pathway) was “some suppression”, the “IPA CAI list, ex vivo 14 gene set” value (CAI Ex vivo pathway) was “strong dose dependent suppression” and the “non-voltage dependent calcium genes signature” value [3] was “strongly suppressed; also recorded: strong suppression”. For the same compound, the “canonical calcium signaling pathway signature” value [4] was “No significant suppression”, the EGR1 up regulation ([1]; varying doses of CTO at 8 hr and 24 hrs) was 6 fold and the CEACAM1 regulation [5] was “down regulated”. For the same compound, the Dystonin down regulation (Dystonin) was 60 fold, the TGF-β signaling (TGF-β signaling) was “inhibited” and the tumor response ([6]; cancer patients with different genomic mutations) was “stable disease or partial response showing tumor shrinkage”. The safety and tolerability ([6]; cancer patients, maximum tolerated dose not determined) was “safe and tolerable”, the “net result probes overlapping between the 8 hr and 24 hr lists” value ([7]; 442 unique annotated genes) was 558 and the probes observed ([7]; 8 hours) was 1440. For the same compound, the probes observed ([7]; 24 hrs) was 2961, the “transcriptional response (differential probes)” value [7] was “differential probes increased in a dose related manner; also recorded: greatest effect transcriptionally” and the “fold range of the overlapping probes” value ([7]; high dose CTO/24 hr) was −75 to +33 fold.

With C#Cc1cccc(Nc2ncnc3cc(OCCOC)c(OCCOC)cc23)c1 [Tarceva®, erlotinib, reference compound] the EGR1 regulation [1] was “suppressed”, the CEACAM1 regulation [5] was “down regulated” and the “transcriptional response (differential probes)” value [7] was “less differential probes than CTO or BEZ235”.

From patent US10378059B2, “Methods and molecular pharmacodynamic biomarkers for multiple signaling pathways in response to carboxyamidotriazole orotate” (TACTICAL THERAPEUTICS, INC., priority 2013, dated 2019)
